Test results: patent publication US20180250232A1, “PROCESS FOR PREPARING SPRAY DRIED SOLID DISPERSIONS OF (S)-N-(3-(6-ISOPROPOXYPYRIDIN-3-YL)-1H-INDAZOL-5-YL)-1-(2-(4-(4-(1-METHYL-1H-1,2,4-TRIAZOL-3-YL)PHENYL)-3,6-DIHYDROPYRIDIN-1(2H)-YL)-2-OXOETHYL)-3-(METHYLTHIO)PYRROLIDINE-3-CARBOXAMIDE FOR PHARMACEUTICAL PREPARATIONS” (Merck Sharp & Dohme Corp., priority 2015, published 2018)

Test: polymorph studies / competition slurry experiments
Assay type: physicochemical
Experimental: Preliminary polymorph screening for (S)—N-(3-(6-isopropoxypyridin-3-yl)-1H-indazol-5-yl)-1-(2-(4-(4-(1-methyl-1H-1,2,4-triazol-3-yl)phenyl)-3,6-dihydropyridin-1(2H)-yl)-2-oxoethyl)-3-(methylthio)pyrrolidine-3-carboxamide were conducted by solvent-mediated slurry experiments in 10 different solvents or solvent mixtures using the amorphous compound as the starting material.

CS[C@@]1(C(=O)Nc2ccc3[nH]nc(-c4ccc(OC(C)C)nc4)c3c2)CCN(CC(=O)N2CC=C(c3ccc(-c4ncn(C)n4)cc3)CC2)C1 [hydrate form 2, (S)—N-(3-(6-isopropoxypyridin-3-yl)-1H-indazol-5-yl)-1-(2-(4-(4-(1-methyl-1H-1,2,4-triazol-3-yl)phenyl)-3,6-dihydropyridin-1(2H)-yl)-2-oxoethyl)-3-(methylthio)pyrrolidine-3-carboxamide crystalline free base hydrate form 2]
more stable form in competition slurry experiments (hydrate form 1 and 2 as seeds in H2O/methanol mixture (H2O activity of 0.5), room temperature and 4° C.): more stable form in both experiments | stability of crystalline form (polymorph studies) (room temperature): most stable crystalline form at room temperature
